Measured values published in paper PMC10541411 (Nature Communications, 2023).

Tests used:
[1] = tested on: WT 53BP1^FFR IRIF in U2OS cells; experiment: 53BP1FFR ionizing radiation-induced foci (IRIF) formation, immunofluorescence, WT; format: cell-based, Homo Sapiens; details: 1 Gy X-ray, different concentrations of UNC3474
Description: (§1) The foci-forming region (FFR; residues 1220–1711) of wild-type 53BP1 and mutants E1549P/D1550N (53BP1^FFR-PN) and E1549C/E1567C (53BP1^FFR-CC) were inserted into the retroviral vector POZ. The primers used to introduce the E1549P/D1550N mutations are: […] (forward) and […] (reverse). The primers used to introduce the E1549C/E1567C mutations are: […] (forward) and […] (reverse). The 53BP1^FFR constructs were stably expressed at a moderate level in U2OS cells. To probe the effect of UNC3474 on 53BP1^FFR IRIF formation, U2OS cells were grown on glass coverslips, pre-incubated for 1 h with various concentrations of UNC3474 and exposed to 1 Gy of X-ray radiation. After 1 h, the cells were fixed in 4% formaldehyde in PBS for 15 min at room temperature and blocked and permeabilized for 1 h in PBS containing 0.3% Triton X-100, 1% BSA, 10% fetal bovine serum. […]
(§2) Cell samples were subjected to z-stack scanning with a total depth of 5 μm to comprehensively capture all 53BP1^FFR and γH2A.X IRIF within the cell nuclei, which were fluorescently labeled with DAPI. […] To assess the quantification of 53BP1^FFR and γH2A.X foci per nuclei, a customized CellProfiler (version 3.0)[68] pipeline was employed. […]

[2] = tested on: 53BP1^FFR-CC IRIF in U2OS cells; experiment: 53BP1FFR ionizing radiation-induced foci (IRIF) formation, immunofluorescence, CC mutant; format: cell-based, Homo Sapiens; details: 1 Gy X-ray, different concentrations of UNC3474
Description: as §1, §2

53BP1^TT WT [3] = biological target: T1, 53BP1^TT WT (Homo sapiens, UniProt Q12888); experiment: Small angle X-ray scattering (SAXS); parameters: residues 1484-1603; made in house; host or cells: E. coli
Description: SAXS measurements were performed at 10 °C and different concentrations (0.67, 1.33 and 2 mg/mL) of 53BP1^TT WT, free and in complex with 10-fold molar excess of UNC3474 or UNC1118, in 25 mM sodium phosphate, pH 7.5, 15 mM NaCl, as well as on control samples containing only the small molecule in the same buffer. SAXS data were collected at the Lawrence Berkeley National Laboratory SYBILS beamline 12.3.1 and analyzed using programs from the SAXS data analysis software ATSAS (version 2.4.2)[63],[64] including PRIMUS, GNOM, AUTOPOROD, GASBOR and CRYSOL. PRIMUS (version 3.0) was used for initial data processing. Radii of gyration (Rg) were calculated using the Guinier approximation. Distance distribution functions P(r) and maximum particle dimensions were computed using GNOM. Molecular volumes and weights were estimated using AUTOPOROD. Ab initio reconstructions of molecular envelopes were done using GASBOR 2.3i. CRYSOL was used to back calculate the scattering curves and determine the goodness of fit.
Supplementary Table 1 | SAXS reporting data.
Organism Homo Sapiens Homo Sapiens Homo Sapiens
Source E. coli E. coli E. coli
Solvent composition 25 mM sodium 25 mM sodium 25 mM sodium
phosphate, pH 7.5, 15 phosphate, pH 7.5, 15 phosphate, pH 7.5, 15
SAXS data collection parameters
Source SIBYLS beamline 12.3.1 at the Advanced Light Source […]
Beam geometry (size, sample-to-detector distance) 0.1 x 0.1 mm, 1.5 m
Method for monitoring radiation damage Varied exposure lengths were compared against one another
Exposure time, number of exposures 0.5 s, 1 s, 2 s exposures for each concentration
Sample configuration A 1 mm sample was placed between two mica windows in a
Software employed for SAXS data reduction, analysis and interpretation
SAS data reduction Subtraction using established programs at SIBYLS beamline 12.3.1
Basic analyses and merging of curves. PRIMUS from ATSAS 2.4.2
Shape/bead modeling GASBOR 2.3i
Target sequence in this assay (Q12888 1484-1603): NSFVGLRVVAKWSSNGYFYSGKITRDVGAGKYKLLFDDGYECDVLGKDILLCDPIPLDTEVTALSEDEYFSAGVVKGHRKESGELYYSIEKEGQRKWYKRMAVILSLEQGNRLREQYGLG

53BP1^TT WT [4] = biological target: T1, 53BP1^TT WT; experiment: 1H-15N HSQC NMR titration of 15N-labeled wild-type 53BP1TT; format: binding; parameters: The tandem Tudor domain of 53BP1 (53BP1^TT, residues 1481–1603) was purified as previously described; made in house; host or cells: E. coli (only for the SAXS sample); details: 15N-labeled WT 53BP1TT
Description: All NMR data were collected at 25 °C on a 700 MHz Bruker Avance III spectrometer equipped with a cryoprobe. Data were processed and analyzed with NMRPipe[54] and NMRViewJ[55],[56].
To probe chemical shift perturbations, ^1H-^15N HSQC spectra were acquired on the following samples: 0.2 mM ^15N-labeled 53BP1^TT WT and 53BP1^TT-PN in 25 mM sodium phosphate, pH 7.0, 1.5 mM NaN3, 0.3 mM DSS, 90% H2O/10% D2O, free and incrementally titrated with various non-labeled inhibitors (UNC1078, UNC1118, UNC2170, UNC2991, UNC3474), as well as with H4KC20me2 and p53K382me2 peptides. Chemical shift perturbations (Δδ) were calculated using the Eq. (1):1 Δδ=(ΔN/5)^2+ΔH^2 where ΔN and ΔH are the corresponding differences in ^15N and ^1H chemical shifts between the bound and free forms of 53BP1.
Target sequence in this assay (Q12888 1481-1603): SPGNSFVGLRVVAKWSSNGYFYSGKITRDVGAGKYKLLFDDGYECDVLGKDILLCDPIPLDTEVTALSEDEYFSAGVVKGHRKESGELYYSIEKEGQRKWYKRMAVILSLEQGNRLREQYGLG

Rg, P(r) analysis, of 53BP1TT complex (53BP1^TT WT [3]; 10-fold molar excess of ligand, free 53BP1TT 18.85 ± 0.069): 20.18 ± 0.038 Å
Rg, Guinier analysis, of 53BP1TT complex (53BP1^TT WT [3]; 10-fold molar excess of ligand, free 53BP1TT 19.1 ± 0.2): 20.1 ± 0.1 Å
dmax, P(r) analysis, of 53BP1TT complex (53BP1^TT WT [3]; 10-fold molar excess of ligand, free 53BP1TT 62.5): 69.4 Å
Porod volume of 53BP1TT complex (53BP1^TT WT [3]; 10-fold molar excess of ligand, free 53BP1TT 21822): 37692 Å3
SMILES: CC(C)c1cccc(C(=O)NCCCNC(C)(C)C)c1 [UNC3474]
WT 53BP1FFR IRIF formation [1]: inhibited in a dose-dependent manner
53BP1FFR-CC IRIF [2]: no significant change
changes in SAXS data upon complex formation (53BP1^TT WT [3]; 10-fold molar excess of small molecule, 10 °C): agreed well with 53BP1^TT homodimerization
changes in signal positions in the 1H-15N HSQC spectrum of 53BP1TT upon titration (53BP1^TT WT [4]): slow exchange on the chemical shift time scale
